One test addresses Endothelial lipase (EL) (Homo sapiens (Human), UniProt Q9Y5X9). The test is described as follows: EL assay: endothelial lipase activity with fluorescent substrate A10070 in DMPG vesicles. The test is classed as biochemical. The gist of the method:
(§1)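 Compounds were preincubated with enzyme for 30 min at 37° C before FRET-substrate vesicles (A10070 in DMPG, 0.11 mole fraction) were added. Reaction rates were obtained from the 300–900 sec slope of fluorescence at 490/530 nm.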

In another test the target is hepatic lipase (HL) (Homo sapiens (Human), UniProt P11150). Briefly: HL assay: hepatic lipase activity with fluorescent substrate A10070 in DMPG vesicles. The test is classed as biochemical. The procedure, abridged:
as §1

Setting [1] is: EL from conditioned media of HT-1080 cells, 30 min incubation with compound at 37° C., A10070/DMPG vesicles.
Where [2] appears, read: HL partially purified from conditioned media of COS cells, 30 min incubation with compound at 37° C., A10070/DMPG vesicles.

Like-named read-outs stand apart in the source and are kept apart here.

Sequence of Endothelial lipase (EL) (Q9Y5X9 21-500): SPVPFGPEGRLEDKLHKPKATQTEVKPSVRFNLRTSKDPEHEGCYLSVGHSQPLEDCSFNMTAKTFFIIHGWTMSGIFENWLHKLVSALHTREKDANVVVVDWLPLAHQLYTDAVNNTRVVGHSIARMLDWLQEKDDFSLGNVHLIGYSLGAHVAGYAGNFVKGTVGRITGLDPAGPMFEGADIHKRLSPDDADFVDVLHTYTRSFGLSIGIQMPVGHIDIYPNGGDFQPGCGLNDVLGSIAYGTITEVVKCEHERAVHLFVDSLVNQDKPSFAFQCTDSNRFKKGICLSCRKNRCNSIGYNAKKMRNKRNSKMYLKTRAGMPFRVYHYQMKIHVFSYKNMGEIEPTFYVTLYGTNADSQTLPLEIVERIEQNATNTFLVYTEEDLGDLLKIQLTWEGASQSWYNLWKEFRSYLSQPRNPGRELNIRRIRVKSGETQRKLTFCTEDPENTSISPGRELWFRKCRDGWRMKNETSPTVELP
Sequence of hepatic lipase (HL) (P11150 23-499, species assumed): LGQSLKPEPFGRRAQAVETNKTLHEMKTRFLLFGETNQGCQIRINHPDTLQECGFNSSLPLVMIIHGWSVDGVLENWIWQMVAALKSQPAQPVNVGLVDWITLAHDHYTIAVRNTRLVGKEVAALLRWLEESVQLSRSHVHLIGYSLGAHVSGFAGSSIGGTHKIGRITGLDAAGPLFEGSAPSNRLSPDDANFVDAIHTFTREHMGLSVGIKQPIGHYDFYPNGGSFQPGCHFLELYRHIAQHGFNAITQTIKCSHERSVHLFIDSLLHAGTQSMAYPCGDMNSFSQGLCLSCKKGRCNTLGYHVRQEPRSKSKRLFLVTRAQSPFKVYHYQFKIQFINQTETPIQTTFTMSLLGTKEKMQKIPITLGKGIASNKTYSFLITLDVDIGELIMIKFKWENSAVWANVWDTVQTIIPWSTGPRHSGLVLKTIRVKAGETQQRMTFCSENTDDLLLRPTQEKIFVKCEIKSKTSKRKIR

As to `Cc1nnc(CNC(=O)C(c2nc3cc(C)c(-c4ccc5c(c4)CCC(=O)N5)cc3s2)S(C)(=O)=O)o1` (stereo not shown) [Example B85, N-((5-methyl-1,3,4-oxadiazol-2-yl)methyl)-2-(5-methyl-6-(2-oxo-1,2,3,4-tetrahydro-6-quinolinyl)-1,3-benzothiazol-2-yl)-2-(methylsulfonyl)acetamide], the results for the IC50 on Endothelial lipase (EL) and against hepatic lipase (HL) were 11 nM and 124 nM, respectively.

With `CS(=O)(=O)C(C(=O)NCCS(N)(=O)=O)c1nc2cc(-c3ccc(C(=O)N4CCOCC4)cc3)ccc2s1` (stereo not shown) [Example B86, 2-(methylsulfonyl)-2-(5-(4-(4-morpholinylcarbonyl)phen-yl)-1,3-benzothiazol-2-yl)-N-(2-sulfamoylethyl)a-cetamide], the 50% inhibitory concentration (IC50) (in general, the concentration that inhibits the measured activity by half) on Endothelial lipase (EL) was less than 10 nM; on hepatic lipase (HL), 494 nM.

Turning to `COc1ccc(-c2ccc3sc(C(C(=O)NCCS(N)(=O)=O)S(C)(=O)=O)nc3c2)cn1` (stereo not shown) [Example B87, 2-(5-(6-methoxy-3-pyridinyl)-1,3-benzothiazol-2-yl)-2-(methylsulfonyl)-N-(2-sulfamoylethyl)acetamide], the values for the 50% inhibitory concentration (IC50) against Endothelial lipase (EL) and at hepatic lipase (HL) were 0.5 nM and 2.6 nM, respectively.

As to `COc1cc(-c2ccc3sc(C(C(=O)NCCS(N)(=O)=O)S(C)(=O)=O)nc3c2)ccn1` (stereo not shown) [Example B88, 2-(5-(2-methoxy-4-pyridinyl)-1,3-benzothiazol-2-yl)-2-(methylsulfonyl)-N-(2-sulfamoylethyl)acetamide], the IC50 is 0.5 nM against Endothelial lipase (EL) and 2.2 nM at hepatic lipase (HL).

With `CS(=O)(=O)C(C(=O)NCCS(N)(=O)=O)c1nc2cc(-c3cncnc3)ccc2s1` (stereo not shown) [Example B89, 2-(methylsulfonyl)-2-(5-(5-pyrimidinyl)-1,3-benzothiazol-2-yl)-N-(2-sulfamoylethyl)acetamide], the values for the IC50 against Endothelial lipase (EL) and at hepatic lipase (HL) were 4.4 nM and 70 nM, respectively.

Turning to `COCCn1cc(-c2ccc3sc(C(C(=O)NCCS(N)(=O)=O)S(C)(=O)=O)nc3c2)cn1` (stereo not shown) [Example B90, 2-(5-(1-(2-methoxyethyl)-1H-pyrazol-4-yl)-1,3-benzothiazol-2-yl)-2-(methylsulfonyl)-N-(2-sulfamoylethyl)acetamide], the figures for the IC50 against Endothelial lipase (EL) and at hepatic lipase (HL) were less than 10 nM and 100 nM, respectively.

Take `CS(=O)(=O)C(C(=O)NCCS(N)(=O)=O)c1nc2cc(-c3cnn(CCN4CCOCC4)c3)ccc2s1` (stereo not shown) [Example B91, 2-(methylsulfonyl)-2-(5-(1-(2-(4-morpholinyl)ethyl)-1H-pyrazol-4-yl)-1,3-benzothiazol-2-yl)-N-(2-sulfamoylethyl)acetamide]: the IC50 is less than 10 nM against Endothelial lipase (EL) and 1800 nM on hepatic lipase (HL).

As to `CS(=O)(=O)C(C(=O)NCCS(N)(=O)=O)c1nc2cc(-c3ccccc3)ccc2s1` (stereo not shown) [Example B92, 2-(methylsulfonyl)-2-(5-phenyl-1,3-benzothiazol-2-yl)-N-(2-sulfamoylethyl)a-cetamide], the IC50 on Endothelial lipase (EL) and against hepatic lipase (HL) was less than 10 nM throughout.

Regarding `COCCNC(=O)c1ccc(-c2ccc3sc(C(C(=O)NCCS(N)(=O)=O)S(C)(=O)=O)nc3c2)cc1` (stereo not shown) [Example B93, N-(2-methoxyethyl)-4-(2-(1-(methylsulfonyl)-2-oxo-2-((2-sulfamoylethyl)a-mino)ethyl)-1,3-benzothiazol-5-yl)ben-zamide], the IC50 stood at 0.5 nM against Endothelial lipase (EL) and 7.1 nM against hepatic lipase (HL).

Take `CS(=O)(=O)C(C(=O)NCCS(N)(=O)=O)c1nc2cc(-c3ccc(C(=O)NCCO)cc3)ccc2s1` (stereo not shown) [Example B94, N-(2-hydroxyethyl)-4-(2-(1-(methylsulfonyl)-2-oxo-2-((2-sulfamoylethyl)a-mino)ethyl)-1,3-benzothiazol-5-yl)ben-zamide]: the concentration for half-maximal inhibition (IC50) is less than 10 nM on Endothelial lipase (EL) and 123 nM on hepatic lipase (HL).

Regarding `CS(=O)(=O)C(C(=O)NCCS(N)(=O)=O)c1nc2cc(-c3ccnc(F)c3)ccc2s1` (stereo not shown) [Example B95, 2-[5-(2-fluoro-4-pyridinyl)-1,3-benzothiazol-2-yl]-2-(methylsulfonyl)-N-(2-sulfamoylethyl)acetamide], the 50% inhibitory concentration (IC50) on Endothelial lipase (EL) was less than 10 nM; against hepatic lipase (HL), 70 nM.

With `Cc1nnc(CNC(=O)C(c2nc3cc(C)c(-c4ccc(C(=O)N5CCOCC5)cc4)cc3s2)S(=O)(=O)Cc2ccccc2)o1` (stereo not shown) [Example B96, 2-(benzylsulfonyl)-2-(5-methyl-6-(4-(4-morpholinylcarbonyl)phen-yl)-1,3-benzothiazol-2-yl)-N-((5-methyl-1,3,4-oxadiazol-2-yl)methyl)a-cetamide], the figures for the IC50 against Endothelial lipase (EL) and against hepatic lipase (HL) were 27 nM and 251 nM, respectively.

In the case of `COc1ccc(-c2cc3sc(C(C(=O)NCc4nnc(C)o4)S(=O)(=O)Cc4ccccc4)nc3cc2C)cn1` (stereo not shown) [Example B97, 2-(benzylsulfonyl)-2-(6-(6-methoxy-3-pyridinyl)-5-methyl-1,3-benzothiazol-2-yl)-N-((5-methyl-1,3,4-oxadiazol-2-yl)methyl)a-cetamide], the 50% inhibitory concentration (IC50) is 24 nM against Endothelial lipase (EL) and 57 nM against hepatic lipase (HL).

As to `CS(=O)(=O)C(C(=O)NCCS(N)(=O)=O)c1nc2ccc(-c3cnn(C4CCNCC4)c3)cc2s1` (stereo not shown) [Example B98, 2-(Methylsulfonyl)-2-(6-(1-(4-piperidinyl)-1H-pyrazol-4-yl)-1,3-benzothiazol-2-yl)-N-(2-sulfamoylethyl)acetamide], the IC50 at Endothelial lipase (EL) (setting [1]) is less than 10 nM; on hepatic lipase (HL) (setting [2]) it was 464 nM.

Turning to `COCCNC(=O)c1ccc(-c2ccc3nc(C(C(=O)NCCS(N)(=O)=O)S(=O)(=O)Cc4ccccc4)sc3c2)cc1` (stereo not shown) [Example B99, 4-(2-(1-(Benzylsulfonyl)-2-oxo-2-((2-sulfamoylethyl)amino)ethyl)-1,3-benzothiazol-6-yl)-N-(2-methoxyethyl)benzamide], the 50% inhibitory concentration (IC50) at Endothelial lipase (EL) (setting [1]) is less than 10 nM; on hepatic lipase (HL) (setting [2]), 55 nM.

On to `COCCS(=O)(=O)C(C(=O)NCCS(N)(=O)=O)c1nc2ccc(-c3ccc(C(=O)N4CCOCC4)cc3)cc2s1` (stereo not shown) [Example B100, 2-((2-methoxyethyl)sulfonyl)-2-(6-(4-(4-morpholinyl-carbonyl)phenyl)-1,3-benzothiazol-2-yl)-N-(2-sulfamoylethyl)acetamide], for which the values for the half-maximal inhibitory concentration (IC50) at Endothelial lipase (EL) and against hepatic lipase (HL) were less than 10 nM and 1240 nM, respectively.

Take `CS(=O)(=O)C(C(=O)NCCS(N)(=O)=O)c1nc2ccc(-c3ccc(C(=O)N4CCOCC4)cc3)cc2s1` (stereo not shown) [Example B101, 2-(methylsulfonyl)-2-(6-(4-(4-morpholinylcarbonyl)phen-yl)-1,3-benzothiazol-2-yl)-N-(2-sulfamoylethyl)a-cetamide]: the IC50 against Endothelial lipase (EL) was less than 10 nM; on hepatic lipase (HL), 63 nM.

On to `NS(=O)(=O)CCNC(=O)C(c1nc2ccc(-c3ccc(C(=O)N4CCOCC4)cc3)cc2s1)S(=O)(=O)Cc1ccccc1` (stereo not shown) [Example B102, 2-(benzylsulfonyl)-2-(6-(4-(4-morpholinylcarbonyl)phen-yl)-1,3-benzothiazol-2-yl)-N-(2-sulfamoylethyl)a-cetamide], for which the IC50 against Endothelial lipase (EL) worked out at 18 nM; on hepatic lipase (HL), 5290 nM.

On to `COCCS(=O)(=O)C(C(=O)NCCS(N)(=O)=O)c1nc2ccc(-c3ccccc3)cc2s1` (stereo not shown) [Example B103, 2-((2-methoxyethyl)sul-fonyl)-2-(6-phenyl-1,3-benzothiazol-2-yl)-N-(2-sulfamoylethyl)acetemide], for which the IC50 against Endothelial lipase (EL) and against hepatic lipase (HL) was less than 10 nM each time.

On to `NS(=O)(=O)CCNC(=O)C(c1nc2ccc(-c3ccccc3)cc2s1)S(=O)(=O)Cc1ccccc1` (stereo not shown) [Example B104, 2-(benzylsulfonyl)-2-(6-phenyl-1,3-benzothiazol-2-yl)-N-(2-sulfamoylethyl)a-cetamide], for which the IC50 against Endothelial lipase (EL) and at hepatic lipase (HL) was less than 10 nM throughout.

Take `CCS(=O)(=O)C(C(=O)NCCS(N)(=O)=O)c1nc2ccc(-c3ccccc3)cc2s1` (stereo not shown) [Example B105, 2-(ethylsulfonyl)-2-(6-phenyl-1,3-benzothiazol-2-yl)-N-(2-sulfamoylethyl)a-cetamide]: the IC50 against Endothelial lipase (EL) and against hepatic lipase (HL) was less than 10 nM in each case.

In the case of `CC(C)CS(=O)(=O)C(C(=O)NCCS(N)(=O)=O)c1nc2ccc(-c3ccccc3)cc2s1` (stereo not shown) [Example B106, 2-(isobutylsulfonyl)-2-(6-phenyl-1,3-benzothiazol-2-yl)-N-(2-sulfamoylethyl)a-cetamide], the half-maximal inhibitory concentration (IC50) at Endothelial lipase (EL) and against hepatic lipase (HL) was less than 10 nM each time.

For the compound `CCCS(=O)(=O)C(C(=O)NCCS(N)(=O)=O)c1nc2ccc(-c3ccccc3)cc2s1` (stereo not shown) [Example B107, 2-(6-phenyl-1,3-benzothiazol-2-yl)-2-(propylsulfonyl)-N-(2-sulfamoylethyl)acetamide], the IC50 against Endothelial lipase (EL) and against hepatic lipase (HL) was less than 10 nM in each case.

On to `NS(=O)(=O)CCNC(=O)C(c1nc2ccc(-c3ccc(C(=O)N4CCOCC4)cc3)cc2s1)S(=O)(=O)CCC(F)(F)F` (stereo not shown) [Example B108, 2-(6-(4-(4-morpholinyl-carbonyl)phenyl)-1,3-benzothiazol-2-yl)-N-(2-sulfamoylethyl)-2-((3,3,3-trifluoropropyl)sul-fonyl)acetamide], for which the IC50 was less than 10 nM against Endothelial lipase (EL) and 23 nM against hepatic lipase (HL).

Consider `CC(C)CS(=O)(=O)C(C(=O)NCCS(N)(=O)=O)c1nc2ccc(-c3ccc(C(=O)N4CCOCC4)cc3)cc2s1` (stereo not shown) [Example B109, 2-(isobutylsulfonyl)-2-(6-(4-(4-morpholinyl-carbonyl)phenyl)-1,3-benzothiazol-2-yl)-N-(2-sulfamoylethyl)acetamide], for which the half-maximal inhibitory concentration (IC50) is less than 10 nM at Endothelial lipase (EL) and 191 nM on hepatic lipase (HL).

In the case of `COCCNC(=O)c1ccc(-c2ccc3nc(C(C(=O)NCCS(N)(=O)=O)S(=O)(=O)CCC(F)(F)F)sc3c2)cc1` (stereo not shown) [Example B110, N-(2-methoxyethyl)-4-(2-(2-oxo-2-((2-sulfamoyl-ethyl)amino)-1-((3,3,3-trifluoropropyl)sulfonyl)eth-yl)-1,3-benzothiazol-6-yl)benzamide], the half-maximal inhibitory concentration (IC50) against Endothelial lipase (EL) is less than 10 nM; against hepatic lipase (HL), 180 nM.

(Values after patent US8987314B2, “Amide, urea or sulfone amide linked benzothiazole inhibitors of endothelial lipase” (Bristol-Myers Squibb Company, priority 2012, dated 2015).)
